# How the values were obtained:
# [1] = Raw cotton bleaching, pH control by continuously adding NaOH (Experiment 1); conditions: for Whiteness (Berger) Wb: 20 microM catalyst, unbuffered, 0.2 g/l DTPA, H2O2, 80° C., 30 minutes
# Procedure: Raw cotton with a Berger Whiteness value of 5.5+/−1.0 was treated as follows: 6 grams of the cotton was immersed into temperature-controlled beaker glasses a 60 ml solution (cloth/liquor ratio of 1/10) containing 20 microM of [Mn2O3(Me3-TACN)2] […]
# Drops of NaOH (1M) were added to maintain the pH (within 0.2 pH units) for 30 minutes of agitated solutions at 75 to 80° C. The pH was monitored with a pH meter. Subsequently the cotton swatches were rinsed with 2 to 3 liters of hot demineralised water (80° C.), then washed with copious amounts of demineralised water, spun in a spin drier for 3 minutes and dried overnight under ambient conditions. The optical properties of the cloths were then measured using a Minolta spectrophotometer CM-3700d, using L, a, b values which are converted to Berger Whiteness values.
# The values of the whiteness is expressed in Berger units. The formula of Berger whiteness is given below: Wberger=Y+a.Z−b.X, where a=3.448 and b=3.904.
# The values X, Y, Z are the coordinates of the achromatic point.
# [2] = Raw cotton bleaching, NaOH/H2O2 pretreatment without catalyst, then lower pH and add catalyst (Experiment 2)
# Procedure: Raw cotton with a Berger Whiteness value of 5.5+/−1.0 was treated as follows: 6 grams of the cotton was immersed into temperature-controlled beaker glasses of a 60 ml solution (cloth/liquor ratio of 1/10), containing 0.5 g/l DTPA, 2 g/l Sandoclean PCJ, 2.3% H2O2 (equals to 6.66 ml (35%)/1; w/w wrt cotton), for 15 minutes at 75° C. Subsequently, sulphuric acid was added (1M) until the desired pH was added followed by 20 microM of [Mn2O3(Me3-TACN)2] (PF6)2.H2O and the mixture left for 15 minutes with continuous stirring. No NaOH solution was added during the bleaching process in the presence of catalyst. After the allocated time, the cloths are washed and dried as exemplified above. The values of the whiteness are expressed in Berger units, as defined above.
# Table 2: Whiteness (Berger) results obtained using 20 microM [Mn2O3(Me3-TACN)2] (PF6)2.H2O in an unbuffered solution with 0.2 g/l DTPA at 75° C. for 15 minutes, after having the cloths allowed to pretreat with NaOH/H2O2 for 15 minutes at 75° C. (entry 1) vs adding the catalyst at the beginning of the bleaching experiment at pH 9.75.
# [3] = Raw cotton bleaching, high starting pH left to reduce during bleaching (Experiment 3); conditions: 10 microM catalyst, H2O2, DTPA, 77° C., 30 minutes; pH(init) 10.7, pH(final) 9.7
# Procedure: A batch of raw cotton with a Berger Whiteness value of 0 was treated as follows: 6 grams of the cotton was immersed into temperature-controlled beaker glasses a 60 ml solution (cloth/liquor ratio of 1/10) containing 10 microM of [Mn2O3(Me3-TACN)2] (PF6)2.H2O, 2.3% H2O2 (equals to 6.66 ml (35%)/l; w/w wrt cotton), 0.4 g/l H5-DTPA (ex Akzo-Nobel; trade name Dissolvine D50; purity is 50%), and 2 g/l Sandoclean PCJ (ex Clariant). The temperature of the experiment was 77° C.
# The pH of water containing Sandoclean, Na5DTPA, cotton and appropriate amount of NaOH was determined at room temperature, heated to 77° C., the pH value was monitored and then hydrogen peroxide was added. Then a correction for the addition of hydrogen peroxide was made by adding some extra NaOH. Then the catalyst was added and left for 30 minutes under stirring. The cloths were then rinsed and washed as described above. The pH of the solution after the bleaching stage was determined after allowing the solution cooled down to room temperature. As a comparative experiment to determine the effect of the manganese-triazacyclononane compound, no catalyst was added. The values of the whiteness are expressed in Berger units, as defined above.
# [4] = 20° C.; cited from earlier work
smiles,measurement,setting,value
"CN1CCN(C)CCN(C)CC1.CN1CCN(C)CCN(C)CC1.F[P-](F)(F)(F)(F)F.F[P-](F)(F)(F)(F)F.O.[Mn+4].[Mn+4].[O-2].[O-2].[O-2] [[Mn2O3(Me3-TACN)2](PF6)2•H2O, [Mn2O3(Me3-TACN)2] (PF6)2.H2O]",Whiteness (Berger) Wb,"[1]; pH(init) 9.75, pH(final) 7.3 (pH not controlled)",51.0 Wb
same,Whiteness (Berger) Wb,"[1]; pH(init) 10.0, pH(final) 9.5 (pH controlled with NaOH)",63.1 Wb
same,Whiteness lower without DTPA than the system with DTPA,"[1]; in the presence of catalyst, without DTPA added",about 10 Wb
same,Whiteness (Berger) Wb,"[2]; 20 microM catalyst, 0.2 g/l DTPA, 75° C., 15 minutes after 15 minutes NaOH/H2O2 pretreatment, pH(step 1) 11, pH(step2) 10, pH(final) 9.4",60.0 Wb
same,Whiteness (Berger) Wb,"[2]; catalyst added at the beginning, no pretreatment, pH 9.75, pH(final) 7.6",51.0 Wb
same,Whiteness (Berger) Wb,[3],57.6 Wb
same,water solubility,[4],10.8 g per liter
